US20070196866A1, “Modulators of ion channel trpa1” (IRM LLC, priority 2004, published 2007)
Where “and” joins values, the source holds several entries; their conditions need not be identical. Equal entries are not always repeated. Where two headings read alike, the source gives them in different places.

Experiments:
mTRPA1 [1] = target: T1, mTRPA1 (Mus musculus, UniProt Q8BLA8); assay: Ratiometric calcium imaging of CHO cells expressing mTRPA1; assay type: cell-based; conditions: for increase in intracellular free calcium: ratiometric calcium imaging
T1 construct: expressed in transfected cells; host or cells: CHO cells

naïve CHO cells = assay: Calcium response of naive CHO cells; assay type: cell-based; conditions: alone
Excerpt: Another downstream effect of PLC activity is the generation of Diacylglycerol (DAG). Therefore, we tested if l-Oleoyl-2-acetyl-sn-glycerol (OAG, a cell permeable analog of DAG) could activate TRPA1. […] OAG alone gives no response in naïve CHO cells. DAG can be converted to poly-unsaturated fatty acid (PUFAs) such as arachidonic acid (AA). […] AA can be converted to numerous metabolites, including prostaglandins. […] However, such a compound named 5,8,11,14-Eicosatetraynoic acid (ETYA) activated TRPA1- expressing CHO cells. Therefore, AA metabolism is not required for the activation of TRPA1.

mouse TRPA1 [2] = target: T2, mouse TRPA1 (Mus musculus, UniProt Q8BLA8); assay: FLIPR intracellular calcium assay, mouse TRPA1-expressing CHO cells; assay type: cell-based; conditions: FLIPR; for increase in intracellular calcium upon application: mTRPA1 CHO cells; for EC50: mTRPA1
T2 construct: expressed in transfected cells; host or cells: CHO cells

TRPV1 = assay: Calcium imaging of TRPV1-expressing CHO cells; assay type: cell-based
TRPV4 = target: T3, TRPV4 (Homo sapiens, UniProt Q9HBA0); assay: Calcium imaging of TRPV4-expressing CHO cells; assay type: cell-based
T3 construct: expressed in transfected cells; host or cells: CHO cells

TRPM8 = assay: Calcium imaging of TRPM8-expressing CHO cells; assay type: cell-based
Description: We focused on the two mTRPA1-specific compounds. Using FLIPR, we determined the concentration for half maximal activation to be 61±9 μM for cinnamaldehyde and 22±3 μM for allyl isothiocyanate. […] Ruthenium red, a known blocker of mTRPA1, blocked the cinnamaldehyde response.
(§1) We next tested if specific inhibition of PLC by U-73122 would affect TRPA1 activation by bradykinin. […] We then tested if PLC inhibition of TRPA1 was stimulus specific. […] We further tested the role of PLC inhibition on TRPM8.

adult rat DRG neurons = assay: Calcium imaging of cultured adult rat DRG neurons; assay type: cell-based; conditions: 1.6 times the EC50
Excerpt: To further test this hypothesis, and to find out if the pungent compounds described above activate TRPA1 specifically, we performed calcium imaging of adult rat DRG neurons in response to cold, menthol, cinnamaldehyde, allyl isothiocyanate, and bradykinin. […] To a large extent, cinnamaldehyde and menthol activated mutually exclusive populations of cold-responsive neurons, as our model would predict. Allyl isothiocyanate appeared less specific as it activated 63% of the cold-responsive population (including a large overlap with menthol) and 12% of the cold-insensitive population. We have used 1.6 times the EC50 values of cinnamaldehyde and allyl isothiocyanate to enable us to directly compare DRG response profiles to these compounds. […] There were no significant differences in profiles of cinnamaldehyde and allyl isothiocyanate between cultures in the presence of 1 and 100 ng/ml of NGF.
In addition to the pungent sensory compounds, we have shown that BK can activate TRPA1.
To test if garlic extracts and allicin specifically activate TRPA1 in native neurons, we performed calcium imaging of adult rat DRG neurons. […] Addition of allicin or garlic extract to cultured rat DRG neurons activated a specific population of neurons.

TRPA1 = TRPA1 (Homo sapiens, UniProt O75762); assay: Thapsigargin response of cells transiently transfected with hTRPA1 and YFP reporter; assay type: cell-based; design: expressed in transfected cells; conditions: same coverslip
Excerpt: Phospholipase C (PLC) and phospholipase A2 are activated by BK signaling. Since many TRP channels are modulated by PLC activity, we tested whether downstream affectors of PLC can modulate TRPA1 function. One of the major consequences of PLC activation is the release of calcium from intracellular stores. We therefore tested if passive release of calcium from the stores with the […] endoplasmic reticulum Ca^2+-ATPase (SERCA) pump blocker thapsigargin could activate TRPA1 function. We examined the effect of thapsigargin on cells transiently-transfected with hTRPA1 and YFP reporter plasmid. This allowed for a direct comparison between TRPA1-expressing (YFP positive) and control (YFP negative) cells under the same experimental conditions (on the same coverslip).

mTRPA1 [3] = target: T1, mTRPA1; assay: Whole cell patch clamp of mTRPA1-expressing CHO cells; assay type: cell-based
Excerpt: (§2) We also characterized the cinnamaldehyde-induced current in mTRPA1 expressing CHO cells. […] Expression of either mouse or human TRPA1 (hTRPA1) in Xenopus oocytes rendered these cells responsive to cinnamaldehyde as well as to cold temperatures. […] Indeed, the cinnamaldehyde-induced current from mTRPA1-expressing oocytes rarely returned to baseline, even after washing out the compound.

mouse TRPA1 [4] = target: T2, mouse TRPA1; assay: Current recording in Xenopus oocytes expressing mouse TRPA1; assay type: cell-based
Excerpt: as §2

human TRPA1 (hTRPA1) = target: T4, human TRPA1 (hTRPA1) (Homo sapiens, UniProt O75762); assay: Current recording in Xenopus oocytes expressing human TRPA1; assay type: cell-based
T4 construct: expressed in transfected cells; host or cells: Xenopus oocytes
Excerpt: as §2
Increased currents by repeated application of cinnamaldehyde (sensitization) in oocyte recordings is in contrast to strong desensitization to cinnamaldehyde observed in mTRPA1-expressing CHO cell.

dTRPA1 (dANTKM1) = target: T5, dTRPA1 (dANTKM1) (Drosophila melanogaster, UniProt Q7Z020); assay: Current recording in oocytes expressing dTRPA1; assay type: cell-based
T5 construct: expressed in transfected cells; host or cells: oocytes (Xenopus, from the preceding sentences)
T5 sequence (Q7Z020 1-1197): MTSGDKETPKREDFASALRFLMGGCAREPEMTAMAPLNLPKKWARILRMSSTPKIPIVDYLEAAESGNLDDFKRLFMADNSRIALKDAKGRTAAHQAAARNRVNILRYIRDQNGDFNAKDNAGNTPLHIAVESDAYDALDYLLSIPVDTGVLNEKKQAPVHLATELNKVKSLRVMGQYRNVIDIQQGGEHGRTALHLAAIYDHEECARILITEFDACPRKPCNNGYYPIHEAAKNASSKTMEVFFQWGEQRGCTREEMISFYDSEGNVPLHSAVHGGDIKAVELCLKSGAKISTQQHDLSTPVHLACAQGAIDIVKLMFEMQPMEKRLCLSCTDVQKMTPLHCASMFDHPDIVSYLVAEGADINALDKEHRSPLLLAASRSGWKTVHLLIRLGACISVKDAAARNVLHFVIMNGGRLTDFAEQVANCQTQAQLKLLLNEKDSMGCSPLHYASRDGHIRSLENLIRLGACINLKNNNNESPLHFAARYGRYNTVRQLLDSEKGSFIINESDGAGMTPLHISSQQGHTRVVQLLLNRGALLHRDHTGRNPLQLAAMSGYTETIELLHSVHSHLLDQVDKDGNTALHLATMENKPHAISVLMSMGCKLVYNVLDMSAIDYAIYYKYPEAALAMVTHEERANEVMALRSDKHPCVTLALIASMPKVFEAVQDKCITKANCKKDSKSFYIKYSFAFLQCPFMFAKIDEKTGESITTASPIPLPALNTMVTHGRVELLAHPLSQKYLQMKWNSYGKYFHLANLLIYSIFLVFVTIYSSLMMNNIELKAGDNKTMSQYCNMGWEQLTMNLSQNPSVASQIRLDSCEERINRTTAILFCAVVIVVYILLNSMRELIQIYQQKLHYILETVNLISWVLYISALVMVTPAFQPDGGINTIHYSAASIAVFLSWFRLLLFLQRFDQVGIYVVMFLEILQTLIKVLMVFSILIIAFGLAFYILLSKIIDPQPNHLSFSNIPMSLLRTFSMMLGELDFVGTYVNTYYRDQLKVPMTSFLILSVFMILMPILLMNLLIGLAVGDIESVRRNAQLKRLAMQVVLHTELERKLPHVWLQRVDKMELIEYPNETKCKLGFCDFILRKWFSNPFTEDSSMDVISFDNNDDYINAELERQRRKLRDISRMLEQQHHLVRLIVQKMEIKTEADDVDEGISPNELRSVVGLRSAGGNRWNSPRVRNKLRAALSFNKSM

[5] = Nociceptive behavior after intraplantar injection in mice; assay type: in vivo; conditions: for licking and shaking of the injected hindpaw: wildtype mice, intraplantar, five minutes post-injection, cinnamaldehyde 5 mM and 16.4 mM
[6] = Paw withdrawal latency to heat (hyperalgesia) after intraplantar injection; assay type: in vivo, mice
Description: To provide further evidence of the role of TRPA1 in pain sensation, we investigated if cinnamaldehyde injections could lead to hyperalgesia, an increased response to pain due to sensitization often caused by inflammation or injury. […] In contrast, no significant difference could be observed between the latencies of the two paws when vehicle was injected.
Hyperalgesia to heat is thought to involve sensitization of TRPV1. […] Note that paw withdrawal latencies to heat are higher in TRPV1^−/− mice, consistent with the partial heat sensitivity phenotype of these mice (Caterina et al., Science 288: 306-313, 2000; and Davis et al., Nature 405: 183-187, 2000). Therefore, the acute nociceptive response of cinnamaldehyde is independent of TRPV1, while the heat hyperalgesia is mediated through TRPV1.

[7] = tested on: B2R/TRPA1- expressing CHO cells; assay: Calcium imaging of BK responses in B2R/TRPA1-expressing CHO cells; assay type: cell-based; conditions: 10 μM
Excerpt: as §1

B2R-expressing cells = assay: Calcium imaging of BK responses in B2R-expressing cells; assay type: cell-based; conditions: 10 μM
Excerpt: as §1

mTRPA1 [8] = target: T1, mTRPA1; assay: Screen of cinnamaldehyde-like compounds in heterologous expression systems; assay type: cell-based; conditions: even in millimolar concentrations

T2 sequence (Q8BLA8 whole entry): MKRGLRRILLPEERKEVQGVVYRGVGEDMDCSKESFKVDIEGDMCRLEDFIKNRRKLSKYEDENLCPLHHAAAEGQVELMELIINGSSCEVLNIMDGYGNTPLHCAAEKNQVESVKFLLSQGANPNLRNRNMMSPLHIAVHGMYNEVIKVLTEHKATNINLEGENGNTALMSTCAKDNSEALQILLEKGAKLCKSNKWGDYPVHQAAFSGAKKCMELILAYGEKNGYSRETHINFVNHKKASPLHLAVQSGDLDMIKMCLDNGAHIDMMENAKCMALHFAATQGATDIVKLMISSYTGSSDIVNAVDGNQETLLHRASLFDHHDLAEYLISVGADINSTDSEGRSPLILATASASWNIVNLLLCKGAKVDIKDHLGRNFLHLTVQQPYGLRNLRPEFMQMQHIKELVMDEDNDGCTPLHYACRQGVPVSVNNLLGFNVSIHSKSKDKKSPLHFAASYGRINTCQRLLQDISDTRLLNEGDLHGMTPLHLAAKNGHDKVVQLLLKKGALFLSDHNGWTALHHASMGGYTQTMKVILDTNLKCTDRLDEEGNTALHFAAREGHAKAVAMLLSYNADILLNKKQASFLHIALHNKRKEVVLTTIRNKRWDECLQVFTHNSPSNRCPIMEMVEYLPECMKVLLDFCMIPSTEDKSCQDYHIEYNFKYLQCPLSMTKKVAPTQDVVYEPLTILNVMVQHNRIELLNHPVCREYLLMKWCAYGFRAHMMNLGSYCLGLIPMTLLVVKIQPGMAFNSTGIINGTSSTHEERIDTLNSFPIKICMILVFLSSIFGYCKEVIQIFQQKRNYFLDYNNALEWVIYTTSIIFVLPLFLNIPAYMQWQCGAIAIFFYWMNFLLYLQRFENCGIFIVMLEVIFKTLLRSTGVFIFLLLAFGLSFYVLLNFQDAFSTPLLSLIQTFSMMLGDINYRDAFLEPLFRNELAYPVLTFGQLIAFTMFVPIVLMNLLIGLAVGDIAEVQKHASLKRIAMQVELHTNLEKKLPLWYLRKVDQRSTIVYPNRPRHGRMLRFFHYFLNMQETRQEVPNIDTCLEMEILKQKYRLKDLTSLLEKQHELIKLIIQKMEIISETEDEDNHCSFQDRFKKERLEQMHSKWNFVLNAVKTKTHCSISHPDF
T1 sequence (Q8BLA8 whole entry): as above
T4 sequence (O75762 whole entry): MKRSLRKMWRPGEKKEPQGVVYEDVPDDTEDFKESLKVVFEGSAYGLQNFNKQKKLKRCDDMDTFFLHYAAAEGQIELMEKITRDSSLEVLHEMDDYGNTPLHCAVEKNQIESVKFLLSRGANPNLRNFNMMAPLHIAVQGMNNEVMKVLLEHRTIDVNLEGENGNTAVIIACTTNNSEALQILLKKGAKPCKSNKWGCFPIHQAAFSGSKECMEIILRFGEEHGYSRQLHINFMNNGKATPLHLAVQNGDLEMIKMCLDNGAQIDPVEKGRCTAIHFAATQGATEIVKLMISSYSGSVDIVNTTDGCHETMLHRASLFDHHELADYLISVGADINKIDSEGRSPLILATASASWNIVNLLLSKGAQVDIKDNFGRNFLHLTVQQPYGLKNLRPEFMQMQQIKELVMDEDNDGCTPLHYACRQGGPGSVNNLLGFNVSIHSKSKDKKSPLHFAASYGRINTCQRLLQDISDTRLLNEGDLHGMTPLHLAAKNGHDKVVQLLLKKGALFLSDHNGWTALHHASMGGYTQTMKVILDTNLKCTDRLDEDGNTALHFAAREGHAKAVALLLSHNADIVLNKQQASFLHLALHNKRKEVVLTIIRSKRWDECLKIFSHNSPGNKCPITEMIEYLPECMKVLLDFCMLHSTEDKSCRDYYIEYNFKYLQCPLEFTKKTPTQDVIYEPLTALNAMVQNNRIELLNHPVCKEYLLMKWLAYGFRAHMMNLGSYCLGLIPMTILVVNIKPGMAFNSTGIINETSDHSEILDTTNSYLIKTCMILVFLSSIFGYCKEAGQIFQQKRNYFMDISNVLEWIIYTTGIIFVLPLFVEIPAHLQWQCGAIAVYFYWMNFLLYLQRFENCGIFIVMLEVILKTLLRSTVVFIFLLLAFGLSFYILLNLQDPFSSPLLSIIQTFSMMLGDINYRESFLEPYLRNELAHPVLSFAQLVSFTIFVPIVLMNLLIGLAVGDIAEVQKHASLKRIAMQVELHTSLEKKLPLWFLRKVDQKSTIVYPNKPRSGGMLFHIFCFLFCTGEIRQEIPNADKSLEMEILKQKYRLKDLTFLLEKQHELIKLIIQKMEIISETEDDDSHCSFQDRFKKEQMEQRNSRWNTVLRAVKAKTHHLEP
T3 sequence (Q9HBA0 whole entry, species assumed): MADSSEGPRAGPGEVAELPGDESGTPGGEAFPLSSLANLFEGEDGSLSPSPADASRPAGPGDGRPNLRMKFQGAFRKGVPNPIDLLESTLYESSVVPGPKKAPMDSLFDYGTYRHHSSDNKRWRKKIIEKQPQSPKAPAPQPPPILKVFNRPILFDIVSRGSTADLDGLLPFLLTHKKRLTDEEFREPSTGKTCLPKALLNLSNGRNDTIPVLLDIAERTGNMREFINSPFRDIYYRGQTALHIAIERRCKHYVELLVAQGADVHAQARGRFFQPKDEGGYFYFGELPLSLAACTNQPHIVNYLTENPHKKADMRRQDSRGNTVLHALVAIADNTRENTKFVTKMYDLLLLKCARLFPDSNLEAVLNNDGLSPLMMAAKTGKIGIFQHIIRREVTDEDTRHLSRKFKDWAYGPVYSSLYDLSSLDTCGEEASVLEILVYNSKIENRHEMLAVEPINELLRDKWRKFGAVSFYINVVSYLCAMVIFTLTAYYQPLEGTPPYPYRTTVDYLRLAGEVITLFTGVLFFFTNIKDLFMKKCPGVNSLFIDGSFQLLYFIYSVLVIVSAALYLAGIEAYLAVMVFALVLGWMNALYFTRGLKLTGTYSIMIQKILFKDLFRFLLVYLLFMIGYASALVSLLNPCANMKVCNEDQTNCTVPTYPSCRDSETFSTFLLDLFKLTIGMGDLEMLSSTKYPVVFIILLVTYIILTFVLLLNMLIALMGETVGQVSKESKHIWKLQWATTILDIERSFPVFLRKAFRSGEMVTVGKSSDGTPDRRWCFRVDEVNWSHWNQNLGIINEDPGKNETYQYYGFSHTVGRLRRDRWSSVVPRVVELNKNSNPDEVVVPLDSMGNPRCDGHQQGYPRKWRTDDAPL
Sequence of TRPA1 (O75762 whole entry): as the sequence (O75762 whole entry) above

CCCCCCCC/C=C\CCCCCCCC(=O)OC[C@H](CO)OC(C)=O [OAG, l-Oleoyl-2-acetyl-sn-glycerol]
activation of mTRPA1/TRPA1-expressing CHO cells (mTRPA1 [1]): robust response | response in naïve CHO cells (naïve CHO cells): no response

C=CCc1ccc(O)c(OC)c1 [Eugenol]
increase in intracellular calcium upon application (mouse TRPA1 [2]): sharp increase in intracellular calcium

N.N.N.N.N.N.N.N.N.N.N.N.N.N.[Cl-].[Cl-].[Cl-].[Cl-].[Cl-].[Cl-].[O-2].[O-2].[Ru+3].[Ru+3].[Ru+4] [Ruthenium red]
block of AA activation (mTRPA1 [1]; stimulus AA): blocked | block of the OAG response (mTRPA1 [1]; stimulus OAG): blocked | block of the cinnamaldehyde response (mTRPA1 [1]; stimulus cinnamaldehyde): blocked

C=CCN=C=S [allyl isothiocyanate]
specificity to mTRPA1 when tested against TRPM8 and TRPV1 (mouse TRPA1 [2]): specific to mTRPA1 | EC50 (mouse TRPA1 [2]; read-out: concentration for half maximal activation (EC50)): 22 ± 3 µM | increase in intracellular calcium upon application (mouse TRPA1 [2]): sharp increase in intracellular calcium | increase in intracellular free calcium (mTRPA1 [1]): robust increase in intracellular free calcium | activation of TRPV1-expressing CHO cells (TRPV1): did not activate | activation of TRPV4-expressing CHO cells (TRPV4): did not activate | activation of TRPM8-expressing CHO cells (TRPM8): did not activate | share of cold-activated (cold-responsive) DRG neurons activated (adult rat DRG neurons): 63% | share of cold-insensitive neurons activated (adult rat DRG neurons): 12%

CCCCC/C=C\C/C=C\C/C=C\C/C=C\CCCC(=O)O [AA, arachidonic acid]
activation of mTRPA1/TRPA1-expressing CHO cells (mTRPA1 [1]): activated

CCCCC[C@H](O)CC(=O)CCc1ccc(O)c(OC)c1 [Gingerol]
increase in intracellular calcium upon application (mouse TRPA1 [2]): sharp increase in intracellular calcium

C/C=C(/C)C(=O)O[C@H]1C(C)=C2[C@H]([C@@H]1OC(=O)CCCCCCC)[C@@](C)(OC(C)=O)C[C@H](OC(=O)CCC)[C@@]1(O)[C@H]2OC(=O)[C@@]1(C)O [thapsigargin]
response in YFP-positive (TRPA1-expressing) cells compared with control cells (TRPA1): slightly smaller than in YFP-negative cells

O=CC=Cc1ccccc1 [cinnamaldehyde]
specificity to mTRPA1 when tested against TRPM8 and TRPV1 (mouse TRPA1 [2]): specific to mTRPA1 | increase in intracellular calcium upon application (mouse TRPA1 [2]): sharp increase in intracellular calcium | EC50 (mouse TRPA1 [2]; concentration for half maximal activation (EC50)): 61 µM and ~61 µM | increase in intracellular free calcium (mTRPA1 [1]): robust increase in intracellular free calcium | activation of TRPV1-expressing CHO cells (TRPV1): did not activate | activation of TRPV4-expressing CHO cells (TRPV4): did not activate | activation of TRPM8-expressing CHO cells (TRPM8): did not activate | elicited current (mTRPA1 [3]): robust desensitized current | response of mouse TRPA1-expressing oocytes (mouse TRPA1 [4]): responsive | response of human TRPA1-expressing oocytes (human TRPA1 (hTRPA1)): responsive | current of second pulse relative to first pulse (human TRPA1 (hTRPA1); repeated applications, n=6): 250±23% | response of dTRPA1-expressing oocytes (dTRPA1 (dANTKM1)): did not respond | share of cold-activated (cold-responsive) DRG neurons activated (adult rat DRG neurons): 39% | share of cold-insensitive neurons activated (adult rat DRG neurons): 1% | response to injection ([5]; TRPV1−/− mice): responded | licking and shaking of the injected hindpaw [5]: induced licking and shaking of the injected hindpaw | heat hyperalgesia ([6]; TRPV1−/− mice): absent | paw withdraw latency, injected compared to control paws ([6]; thirty minutes after injection, p=0.009): significantly lowered

COc1ccc2c(c1)CC[C@@H]1[C@@H]2CC[C@]2(C)[C@@H](NCCCCCCN3C(=O)C=CC3=O)CC[C@@H]12 [U-73122]
effect on TRPA1 activation by cinnamaldehyde (mTRPA1 [1]; stimulus cinnamaldehyde): inhibited | effect on TRPA1 activation by cold (mTRPA1 [1]; stimulus cold): strongly downregulated | effect on cold- and menthol-induced responses of TRPM8 (TRPM8; preincubation necessary for menthol block): strongly dowregulated | inhibition of BK responses in B2R/TRPA1-expressing CHO cells [7]: inhibited | inhibition of BK responses in B2R-expressing cells (B2R-expressing cells): inhibited

CCCCCC#CCC#CCC#CCC#CCCCC(=O)O [ETYA, 5,8,11,14-Eicosatetraynoic acid]
activation of mTRPA1/TRPA1-expressing CHO cells (mTRPA1 [1]): activated

COc1ccc2c(c1)CC[C@@H]1[C@@H]2CC[C@]2(C)[C@@H](NCCCCCCN3C(=O)CCC3=O)CC[C@@H]12 [U-73343]
inhibition of BK responses in B2R/TRPA1-expressing CHO cells [7]: not | inhibition of BK responses in B2R-expressing cells (B2R-expressing cells): not

O=C(O)C=Cc1ccccc1 [Cinnamic acid, reference compound]
licking and shaking of the injected hindpaw [5]: not observed | activation of mTRPA1 (mTRPA1 [8]): did not activate
